“And” between values parts separate entries of the source, which are not always exact repeats. Equal values may be shown once. Where a name gives a salt, the structure may show the parent alone.
Legend:
[1] = system: patients with FMS; details: cited from earlier work
[2] = system: subjects suffering from fibromyalgia syndrome; details: cited from earlier work; for subjects with significant clinical improvement: after one month; for long-term efficacy: at six months, 19% improvement with placebo; for difference from placebo: at three months
[3] = system: patients who met the 1990 ACR criteria for fibromyalgia syndrome; assay: Multi-center double-blind, randomized, placebo-controlled study of milnacipran for fibromyalgia (Example 1, FMS031); assay type: in vivo, human; details: for m, number of responders: observed cases; for percentage of responders (greater than 30% reduction in pain from baseline and improvement on the PGIC): observed cases (OC), hydrochloride
Protocol: The primary outcome was a composite responder analysis assessing response rate at weeks 14 and 15, and the secondary analysis assessed response rate at weeks 26 and 27.
This was a multi-center, randomized, double-blinded, placebo-controlled three-arm study, which enrolled 888 patients who met the 1990 ACR criteria for fibromyalgia syndrome as well as the more detailed admission criteria outlined in the protocol.
Patients recorded baseline symptoms for the first two weeks after washing off anti-depressants, benzodiazepines, and certain other drugs that could potentially interfere with efficacy measurements.
All randomized medications (placebo and milnacipran) were administered in a split-dose (BID) fashion. The doses were administered in a dose escalation regimen as outlined below: • Step 1: 12.5 mg 1 day (12.5 mg pm) • Step 2: 25 mg 2 days (12.5 mg am, 12.5 mg pm) • Step 3: 50 mg 4 days (25 mg am, 25 mg pm) • Step 4: 100 mg 7 days (50 mg am, 50 mg pm) • Step 5: 200 mg 7 days (100 mg am, 100 mg pm).
Patients were required to complete electronic diary, as well as additional paper assessments as described in the schedule of study assessments.
In addition to the daily completion of a proprietary electronic patient diary, the following assessments were obtained:
a. Primary Variables: patient global impression of change (PGIC) and the Fibromyalgia Impact Questionnaire (FIQ);
d. FMS Status Assessments:, Patient pain 24 hour and 7 day recall VAS, the SF-36, Multiple Ability Self-report Questionnaire (MASQ, cognitive function), the Multidimensional Health Assessment Questionnaire (MDHAQ) and the Multi-dimensional Fatigue Inventory (MFI). Diary assessments include current pain (morning, random daily, and evening reports); daily recall pain (morning report); medications taken (evening report); overall pain past week (weekly report), overall fatigue in the last week (weekly report), and the extent that pain kept the patient from caring for themselves (weekly report).
The primary endpoint of this study was a composite responder analysis implementing analysis of three domains of interest, evaluated at […]. The domains measured were:
1) pain (measured by an electronic diary as a daily recall pain score, calculated to weekly average scores);
2) patient global (measured by the PGIC, 1-7 scale); and
3) physical function (measured by the FIQ-PF).
For the primary analysis, the pain domain score was determined by a calculation that compared the average of treatment weeks 14 and 15 to the two baseline weeks, and treatment weeks 26 and 27 vs. baseline for the secondary analysis. The last observation was carried forward if neither the week 14 nor week 15 (or week 26/27) patient self-reported pain score is available to compare to the baseline value.
A responder was defined as a subject who experienced a greater than 30% reduction in pain from baseline and improvement on the PGIC.
See Table 1 for a summary of the results in the Intent-to-Treat Population and Table 2 for a summary of the Last Observation Carried Forward (LOCF), Baseline Observation Carried Forward (BOCF) and study completer (OC) populations. LOCF is an analysis in which observations are carried forward to the last time point for patients who dropped out. The LOCF analysis treats the carried-forward data as observed data at the last time point. BOCF is an analysis that requires the patient remain active in the trial to be evaluated for response. If a patient withdraws from the trial for any reason they are classed as a non-responder irregardless of their pain and global scores at the time of withdrawal.

[4] = system: fibromyalgia patients; details: cited from earlier work
[5] = both milnacipran treatment groups (BID and QD), up to 200 mg/day

For COc1ccc(C(CN(C)C)C2(O)CCCCC2)cc1 (centres unmarked) [venlafaxine], the “patients with insomnia requiring adjunctive medical therapy” value ([1]; of 11 completing patients) is given as 3 patients and the “patients with a positive response (50% or greater improvement in two different measurements of overall pain)” value ([1]; of the 11 patients that completed the study) is given as 6 patients.

For CN(C)CCC=C1c2ccccc2C=Cc2ccccc21 [cyclobenzaprine], the “subjects with significant clinical improvement” value [2] is given as 12%, the long-term efficacy [2] is given as “no long-term efficacy could be demonstrated” and the difference from placebo [2] is given as “no difference between either treatment group and placebo”.

With CCN(CC)C(=O)C1(c2ccccc2)CC1CN (centres unmarked) [milnacipran, Z-2-aminomethyl-1-phenyl-N,N-diethylcyclopropanecarboxamide hydrochloride] the “efficacy of low dose compared with high dose” value ([3]; 100 mg/day vs 200 mg/day, long-term treatment) was “almost as effective as continued administration of high dose milnacipran”, the “Individual Component Responder Rate, PGIC (LOCF)” value ([3]; 100 mg, 3 month) was 54.0% and the “Individual Component Responder Rate, Pain (LOCF)” value ([3]; 100 mg, 3 month) was 35.7%. For the same compound, the “Pain Composite Responder Rate, Sensitivity Analysis I (BOCF)” value (“Pain Composite Responder Rate … (BOCF)” below) ([3]; 100 mg, 3 month) was 32.1%, the “Pain Composite Responder Rate, Sensitivity Analysis II” value ([3]; 100 mg, 3 month) was 32.% and the “Pain Composite Responder Rate, Sensitivity Analysis III” value ([3]; 100 mg, 3 month) was 32.1%. The “Pain Composite Responder Rate, Primary Analysis (LOCF)” value ([3]; 100 mg, 3 month, N = 224) was 33.5%, the “Individual Component Responder Rate, PGIC (LOCF)” value ([3]; 100 mg, 6 month) was 49.6% and the “Individual Component Responder Rate, Pain (LOCF)” value ([3]; 100 mg, 6 month) was 35.7%. For the same compound, the “Pain Composite Responder Rate … (BOCF)” value ([3]; 100 mg, 6 month) was 26.8%, the “Pain Composite Responder Rate, Sensitivity Analysis II” value ([3]; 100 mg, 6 month) was 27.2% and the “Pain Composite Responder Rate, Sensitivity Analysis III” value ([3]; 100 mg, 6 month) was 29.5%. The “Pain Composite Responder Rate, Primary Analysis (LOCF)” value ([3]; 100 mg, 6 month, N = 224) was 30.8%, the “m, number of responders” value ([3]; 100 mg, treatment weeks 14-15, n = 135) was 72 and the “m, number of responders” value ([3]; 100 mg, treatment weeks 26-27, n = 121) was 60. For the same compound, the “Individual Component Responder Rate, PGIC (LOCF)” value ([3]; 200 mg, 3 month) was 50.6%, the “Individual Component Responder Rate, Pain (LOCF)” value ([3]; 200 mg, 3 month) was 38.3% and the “Pain Composite Responder Rate … (BOCF)” value ([3]; 200 mg, 3 month) was 32.4%. For the same compound, the “Pain Composite Responder Rate, Sensitivity Analysis II” value ([3]; 200 mg, 3 month) was 32.7%, the “Pain Composite Responder Rate, Sensitivity Analysis III” value ([3]; 200 mg, 3 month) was 32.4% and the “Pain Composite Responder Rate, Primary Analysis (LOCF)” value ([3]; 200 mg, 3 month, N = 441) was 34.9%. For the same compound, the “Individual Component Responder Rate, PGIC (LOCF)” value ([3]; 200 mg, 6 month) was 49.9%, the “Individual Component Responder Rate, Pain (LOCF)” value ([3]; 200 mg, 6 month) was 35.4% and the “Pain Composite Responder Rate … (BOCF)” value ([3]; 200 mg, 6 month) was 27.0%. For the same compound, the “Pain Composite Responder Rate, Sensitivity Analysis II” value ([3]; 200 mg, 6 month) was 28.6%, the “Pain Composite Responder Rate, Sensitivity Analysis III” value ([3]; 200 mg, 6 month) was 29.9% and the “Pain Composite Responder Rate, Primary Analysis (LOCF)” value ([3]; 200 mg, 6 month, N = 441) was 32.2%. The “m, number of responders” value ([3]; 200 mg, treatment weeks 14-15, n = 260) was 143, the “m, number of responders” value ([3]; 200 mg, treatment weeks 26-27, n = 230) was 119 and the “long-term relief from fibromyalgia and its symptoms” value ([3]; continued daily administration for at least three months) was “provides long-term (at least three months) relief from fibromyalgia and its symptoms”. The “percentage of responders (greater than 30% reduction in pain from baseline and improvement on the PGIC)” value ([3]; milnacipran 100 mg/day BID, 3 months (treatment weeks 14-15)) was 53.33% and 53.3%, the “percentage of responders (greater than 30% reduction in pain from baseline and improvement on the PGIC)” value ([3]; milnacipran 100 mg/day BID, 3 months (treatment weeks 14-15), listed as Milnacipran) was 53.33% and the “percentage of responders (greater than 30% reduction in pain from baseline and improvement on the PGIC)” value ([3]; milnacipran 100 mg/day BID, 6 months (treatment weeks 26-27)) was 49.59% and 49.6%. The “percentage of responders (greater than 30% reduction in pain from baseline and improvement on the PGIC)” value ([3]; milnacipran 100 mg/day BID, 6 months (treatment weeks 26-27), listed as Milnacipran) was 49.59%, the “percentage of responders (greater than 30% reduction in pain from baseline and improvement on the PGIC)” value ([3]; milnacipran 200 mg/day BID, 3 months (treatment weeks 14-15)) was 55.0% and the “percentage of responders (greater than 30% reduction in pain from baseline and improvement on the PGIC)” value ([3]; milnacipran 200 mg/day BID, 3 months (treatment weeks 14-15), listed as Milnacipran) was 55.00%. For the same compound, the “percentage of responders (greater than 30% reduction in pain from baseline and improvement on the PGIC)” value ([3]; milnacipran 200 mg/day BID, 6 months (treatment weeks 26-27)) was 51.74% and 51.7%, the “percentage of responders (greater than 30% reduction in pain from baseline and improvement on the PGIC)” value ([3]; milnacipran 200 mg/day BID, 6 months (treatment weeks 26-27), listed as Milnacipran) was 51.74% and the “deaths or serious adverse events associated with treatment” value ([4]; Phase II study) was “no deaths or serious adverse events”. The “acute (short-term) efficacy on the symptom of pain in FMS” value ([4]; Phase II trial) was “effective acute (short-term) therapy for the symptom of pain in FMS”, the “completers reporting an improvement in their overall status on the PGIC” value [4, 5] was “over 70%” and the “completers reporting worsening on the PGIC” value [4, 5] was 10%. For the same compound, the “patients with elevation in hepatic enzymes reported as adverse event” value ([4]; milnacipran-treated patients) was 2%, the “efficacy of BID versus QD dosing in treating pain” value ([4]; twice-daily dosing compared with QD) was “more effective in treating pain than QD dosing” and the “efficacy of BID versus QD dosing on fatigue, mood, global wellness, and function” value ([4]; twice-daily vs once-daily dosing, up to 200 mg/day) was “approximately equally effective”.

In the case of CN(C)CCC=C1c2ccccc2CCc2ccccc21 [amitriptyline], the “subjects with significant clinical improvement” value [2] is given as 21%, the long-term efficacy [2] is given as “no long-term efficacy could be demonstrated” and the difference from placebo [2] is given as “no difference between either treatment group and placebo”.

Source: patent publication US20070072946A1 (priority 2005, published 2007)
